The record followed here is paper PMC12276312 (Nature Communications, 2025).

One data set addresses T1, MxaF/MxaJ complex (Methylorubrum extorquens, UniProt P16027).
T1 sequence (P16027 28-626): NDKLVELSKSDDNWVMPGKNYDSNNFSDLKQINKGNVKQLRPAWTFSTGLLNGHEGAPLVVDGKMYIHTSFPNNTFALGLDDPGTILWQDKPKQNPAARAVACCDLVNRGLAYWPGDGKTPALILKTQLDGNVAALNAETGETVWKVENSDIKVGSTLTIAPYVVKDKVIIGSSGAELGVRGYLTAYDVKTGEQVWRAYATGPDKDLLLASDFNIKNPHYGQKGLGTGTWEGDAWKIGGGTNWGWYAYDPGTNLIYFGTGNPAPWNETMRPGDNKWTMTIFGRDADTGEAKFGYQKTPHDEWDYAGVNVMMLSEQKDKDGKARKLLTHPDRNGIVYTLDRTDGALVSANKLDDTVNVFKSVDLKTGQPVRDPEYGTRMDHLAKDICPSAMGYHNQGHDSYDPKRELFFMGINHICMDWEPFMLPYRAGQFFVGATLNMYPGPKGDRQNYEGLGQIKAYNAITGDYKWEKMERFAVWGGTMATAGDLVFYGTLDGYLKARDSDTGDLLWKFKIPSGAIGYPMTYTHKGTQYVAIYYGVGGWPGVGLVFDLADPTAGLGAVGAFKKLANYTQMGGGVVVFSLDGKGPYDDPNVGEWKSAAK
T1 sequence (P16028 26-300 partner): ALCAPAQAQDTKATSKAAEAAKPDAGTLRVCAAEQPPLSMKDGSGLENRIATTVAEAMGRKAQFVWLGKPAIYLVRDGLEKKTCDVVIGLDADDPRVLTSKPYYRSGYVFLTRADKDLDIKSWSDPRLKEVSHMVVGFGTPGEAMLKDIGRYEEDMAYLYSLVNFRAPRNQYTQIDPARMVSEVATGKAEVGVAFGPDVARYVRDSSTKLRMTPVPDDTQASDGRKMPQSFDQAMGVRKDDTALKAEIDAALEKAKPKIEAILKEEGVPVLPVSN
Put plainly: isothermal titration calorimetry. In kind it is binding. For orientation: ITC needs no label: the signal is the heat of the interaction.

The data set “cryo-EM structure” deals with the molecule itself. Nature of the data set: cryo-EM structure.

As a reminder, the Kd is the constant that tells how readily two partners part at equilibrium. Read a low Kd as a tighter complex. With `O=C(O)c1cc(C(=O)O)c2c(n1)C(=O)C(=O)c1cc(C(=O)O)[nH]c1-2` [PQQ], on MxaF/MxaJ complex, the Kd was around 77 nM.

B1: MxaF, untagged, co-expressed with MxaJ-His6 for cryo-EM (enzyme, Methylobacterium extorquens AM1, UniProt P16027 28-626, looked up)
chain: T1 sequence (P16027 28-626)
A word on the stoichiometry N: it is the number of molecules, sites or subunits per partner or assembly. Turning to B1, the “stoichiometry N” value in the data set “cryo-EM structure” stood at 2.
